Reference: ChEMBL document CHEMBL6121007, “Design, synthesis and evaluation of pyrimidine derivatives as sedative-hypnotic agents” (Eur J Med Chem, 2025)

Key:
[1] = Upregulation of FoxO signaling pathway related genes in hypothalamus of mouse at 2.5 mg/kg, ip measured after 30 mins by KEGG enrichment analysis relative to control; assay type: functional; settings: 0.5 h
Mus musculus [2] = assay: Upregulation of parathyroid hormone action related genes in hypothalamus of mouse at 2.5 mg/kg, ip measured after 30 mins by KEGG enrichment analysis relative to control; assay type: functional; settings: 0.5 h
Mus musculus [3] = assay: Sedative-hypnotic activity in pentobarbital-induced mouse assessed as asleep rate at 0.5 to 0.1 mg/kg, ip preadministered with compound for 20 mins followed by pentobarbital administration and measured within 15 mins (reference value: 12.5 %); assay type: functional; settings: dose 0.5-0.1 mg/kg, time <= 35 min, at 0.1 to 0.5 mg/kg
[4] = MRT (0 to infinity) in male Sprague-Dawley rat at 2.5 mg/kg, ip measured after 5 to 1440 mins by LC-MS/MS analysis; assay type: ADME, organism-based; settings: in vivo, time 5-1440 min
[5] = Upregulation of Ras signaling pathway related genes in hypothalamus of mouse at 2.5 mg/kg, ip measured after 30 mins by KEGG enrichment analysis relative to control; assay type: functional; settings: 0.5 h
[6] = Upregulation of kaposi sarcoma-associated herpesvirus infection related genes in hypothalamus of mouse at 2.5 mg/kg, ip measured after 30 mins by KEGG enrichment analysis relative to control; assay type: functional; settings: 0.5 h

CCn1c2ccccc2c2cc(Nc3ccnc(Nc4ccc(C)c(OC)c4)n3)ccc21
Activity [1]: 4.62% | Activity (Mus musculus [2]): 4.05% | Activity (Mus musculus [3]): 75% | MRT inf [4]: 8.16 h | Activity [5]: 3.47% | Activity [6]: 4.62%
